Starred links: 1 amine or outer side, 2 acyl side, 3 side chain; linkers in the order of their positions; H or OH if unused. Positions of bridges follow the written chain, without caps; N, C: chain ends. Non-standard residues stand in square brackets, D forms with d. Residues, ends and D or L forms follow the SMILES beside them. ξ: configuration not given here. *: point of attachment. pTerphenylCO(4''-OnC5H11) = CCCCCOc1ccc(-c2ccc(-c3ccc(C(=O)*)cc3)cc2)cc1; Orn(4R-OH,5R-OH) = O=C([C@H](C[C@@H](O)[C@@H](O)N[*:3])N[*:1])[*:2]; hTyr(3S-OH,4S-OH) = N[C@H](C(=O)O)[C@H](O)[C@@H](O)c1ccc(O)cc1; Pro(3S-OH,4S-Me) = C[C@H]1CN[C@H](C(=O)O)[C@H]1O; ξPro(4R-OH) = O=C(O)C1C[C@@H](O)CN1
Tested on: Rat Primary Kidney Glomerular Endothelial cells
Experiment: Oxygen and glucose deprivation followed by replenishment, cell survival (calcein AM), rat glomerular endothelial cells;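 as to Survival rate (%): 100% is hypoxia control with glucose and 0% is untreated OGD control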
Format: cell-based
Protocol: Anidulafungin and micafungin were tested on Human Renal Glomerular Endothelial Cells (HRGEC, Innoprot P10665), on Human Renal Proximal Tubular Epithelial Cells (HRPTEpiC, Innoprot P10662), on Human Astrocytes (HA, caltag SC-1800), on Human Cardiac Microvascular Endothelial Cells (HCMEC, Caltag SC-6000), on Human Hepatic Sinusoidal Endothelial Cells (HHSEC, Caltag SC-5000), on Rat Primary Kidney Glomerular Endothelial cells (Cellbiologics, RN-6014G) and on Bovine Brain Microvascular Endothelial Cells (BBMEC, Caltag SC-B100).
In a first phase, these isolated, purified and cryopreserved cells are thawed and multiplied according to the supplier's recommendations in T75 or T175 flasks pre-coated with 2 μg of fibronectin/[…] (CORNING) for HRGEC, HCMEC, HHSEC and BBMEC, or 2 μg poly-L-lysin/cm^2 (Caltag SC-0403) for HRPTEpiC and HA, or 15 mL/flask 175 cm^2 gelatin-based solution (Cellbiologics) in the presence of endothelial cell supplemented growth medium ECM (P60104, INNOPROT, Caltag, SC-1001) for HRGEC, HCMEC, HHSEC, RPKGEC or BBMEC, or astrocyte cell supplemented growth medium AM (Caltag SC-1801) for HA or epithelial cell supplemented growth medium EpiCM (P60106, INNOPROT) for HRPTEpiC, at 37° C. under 5% CO2 and saturated humidity until their confluency. They are then harvested by trypsinization according to the method described by the supplier for exactly 5 minutes and then reseeded in new flasks a maximum of three times.
To carry out the oxygen and glucose deprivation test followed by their replenishment, the cells will be seeded in 96-well black plates with transparent flat bottom (GREINER). Once a sufficient number of cells has been obtained to allow seeding of 2000 to 15000 cells per well of 96-well plates depending on the cell type, the cells are seeded in these 96-well plates previously coated with an extracellular matrix as listed above for the flasks. The cells are cultured for 5 to 8 days according to the cell type, in the presence of the same growth medium as in the flask as described above except for HRGEC and HRPTEpiC for which DMEM (DUTSCHER) with 1 g/L of supplemented glucose is used, at 37° C. under 5% CO2 and saturated humidity to obtain confluency.
On the first day of oxygen and glucose deprivation, (5th, 6th, 7th or 8th day of culture), the culture conditions are drastically changed. The medium of all plates is removed and replaced by DMEM (DUTSCHER) medium without glucose and supplemented only with 1% penicillin-streptomycin (DUTSCHER). Anidulafungin or micafungin dissolved in dimethyl sulfoxide (DMSO) is then added to each well at the desired concentration, resulting in a maximum of 1% DMSO, and the plates are placed under hypoxia at <1% 02 and 5% CO2 at 37° C. for 24 hours of culture. Each compound was tested in a concentration range.
After 24 hours, the growth medium is changed and replaced by a richer medium, DMEM (DUTSCHER) at 1 g/L glucose and 2% FBS (INNOPROT) and 1% penicillin-streptomycin (DUTSCHER). These media will have been pre-equilibrated at 37° C. in advance. The cells are then returned to culture at 37° C. under 20% 02 and 5% CO2 for 22h.
After 22 hours of reoxygenation, the potential protective effect of anidulafungin or micafungin is measured by a cell viability test using calcein AM (CORNING), which is a dye substrate. The calcein AM can easily cross the cell membrane of the viable cells. The AM ester groups mask the part of the molecule that chelates calcium. Once inside the cells, the (non-fluorescent) calcein AM is hydrolyzed to (fluorescent) calcein by endogenous esterases. The resulting calcein molecule binds to calcium inside the cell and remains trapped inside the cell. These molecules emit strong green fluorescence when subjected to […] of a particular wavelength (495 nm). Since dead cells lack esterase activity, only living cells are labelled.
This cell viability test is performed in two steps. […]

[1] = [Anidulafungin] log μM 0.1760913
[2] = [Anidulafungin] log μM 0.4771213
[3] = [Anidulafungin] log μM 0.7781513
[4] = [Anidulafungin] log μM 0.845098
[5] = [Anidulafungin] log μM 0.9542425
[6] = [Anidulafungin] log μM −0.154902
[7] = [Anidulafungin] log μM −0.30103
[8] = [Anidulafungin] log μM −0.5228788

With `CCCCCOc1ccc(-c2ccc(-c3ccc(C(=O)N[C@H]4C[C@@H](O)[C@@H](O)NC(=O)[C@@H]5[C@@H](O)[C@@H](C)CN5C(=O)[C@H]([C@@H](C)O)NC(=O)[C@H]([C@H](O)[C@@H](O)c5ccc(O)cc5)NC(=O)C5C[C@@H](O)CN5C(=O)[C@H]([C@@H](C)O)NC4=O)cc3)cc2)cc1` (stereo partly drawn) [Anidulafungin] ({pTerphenylCO(4''-OnC5H11)}-[Orn(4R-OH,5R-OH)]T[ξPro(4R-OH)][hTyr(3S-OH,4S-OH)]T[Pro(3S-OH,4S-Me)]; lactam 1-C) the “Globalfluo assay 1” value ([Anidulafungin] log μM 0) was 2763556 arbitrary units, the “Globalfluo assay 2” value ([Anidulafungin] log μM 0) was 3715544 arbitrary units and the “Globalfluo assay 3” value ([Anidulafungin] log μM 0) was 3395182 arbitrary units. The Mean globalfluo ([Anidulafungin] log μM 0) was 3291427 arbitrary units, the “Survival rate (%)” value ([Anidulafungin] log μM 0) was −1% and the “Globalfluo assay 1” value [1] was 4125220 arbitrary units. For the same molecule, the “Globalfluo assay 2” value [1] was 3558016 arbitrary units, the “Globalfluo assay 3” value [1] was 4929089 arbitrary units and the Mean globalfluo [1] was 4204108 arbitrary units. The “Survival rate (%)” value [1] was 3%, the “Globalfluo assay 1” value ([Anidulafungin] log μM 0.30103) was 6944934 arbitrary units and the “Globalfluo assay 2” value ([Anidulafungin] log μM 0.30103) was 4307906 arbitrary units. For the same molecule, the “Globalfluo assay 3” value ([Anidulafungin] log μM 0.30103) was 5211398 arbitrary units, the Mean globalfluo ([Anidulafungin] log μM 0.30103) was 5488079 arbitrary units and the “Survival rate (%)” value ([Anidulafungin] log μM 0.30103) was 8%. For the same molecule, the “Globalfluo assay 1” value ([Anidulafungin] log μM 0.39794) was 7911533 arbitrary units, the “Globalfluo assay 2” value ([Anidulafungin] log μM 0.39794) was 3661322 arbitrary units and the “Globalfluo assay 3” value ([Anidulafungin] log μM 0.39794) was 9914104 arbitrary units. For the same molecule, the Mean globalfluo ([Anidulafungin] log μM 0.39794) was 7162320 arbitrary units, the “Survival rate (%)” value ([Anidulafungin] log μM 0.39794) was 15% and the “Globalfluo assay 1” value [2] was 5124858 arbitrary units. For the same molecule, the “Globalfluo assay 2” value [2] was 4212586 arbitrary units, the “Globalfluo assay 3” value [2] was 3823154 arbitrary units and the Mean globalfluo [2] was 4386866 arbitrary units. The “Survival rate (%)” value [2] was 4%, the “Globalfluo assay 1” value ([Anidulafungin] log μM 0.60206) was 7387656 arbitrary units and the “Globalfluo assay 2” value ([Anidulafungin] log μM 0.60206) was 4239781 arbitrary units. The “Globalfluo assay 3” value ([Anidulafungin] log μM 0.60206) was 4439823 arbitrary units, the Mean globalfluo ([Anidulafungin] log μM 0.60206) was 5355753 arbitrary units and the “Survival rate (%)” value ([Anidulafungin] log μM 0.60206) was 7%. For the same molecule, the “Globalfluo assay 1” value ([Anidulafungin] log μM 0.69897) was 10033620 arbitrary units, the “Globalfluo assay 2” value ([Anidulafungin] log μM 0.69897) was 4718363 arbitrary units and the “Globalfluo assay 3” value ([Anidulafungin] log μM 0.69897) was 7321110 arbitrary units. The Mean globalfluo ([Anidulafungin] log μM 0.69897) was 7357698 arbitrary units, the “Survival rate (%)” value ([Anidulafungin] log μM 0.69897) was 16% and the “Globalfluo assay 1” value [3] was 10219130 arbitrary units. For the same molecule, the “Globalfluo assay 2” value [3] was 11308900 arbitrary units, the “Globalfluo assay 3” value [3] was 8342703 arbitrary units and the Mean globalfluo [3] was 9956911 arbitrary units. The “Survival rate (%)” value [3] was 26%, the “Globalfluo assay 1” value [4] was 10949560 arbitrary units and the “Globalfluo assay 2” value [4] was 9736722 arbitrary units. For the same molecule, the “Globalfluo assay 3” value [4] was 8273113 arbitrary units, the Mean globalfluo [4] was 9653132 arbitrary units and the “Survival rate (%)” value [4] was 25%. The “Globalfluo assay 1” value ([Anidulafungin] log μM 0.90309) was 15350400 arbitrary units, the “Globalfluo assay 2” value ([Anidulafungin] log μM 0.90309) was 11785650 arbitrary units and the “Globalfluo assay 3” value ([Anidulafungin] log μM 0.90309) was 7401575 arbitrary units. For the same molecule, the Mean globalfluo ([Anidulafungin] log μM 0.90309) was 11512542 arbitrary units, the “Survival rate (%)” value ([Anidulafungin] log μM 0.90309) was 32% and the “Globalfluo assay 1” value [5] was 9960942 arbitrary units. For the same molecule, the “Globalfluo assay 2” value [5] was 10967130 arbitrary units, the “Globalfluo assay 3” value [5] was 15364830 arbitrary units and the Mean globalfluo [5] was 12097634 arbitrary units. For the same molecule, the “Survival rate (%)” value [5] was 35%, the “Globalfluo assay 1” value [6] was 3628425 arbitrary units and the “Globalfluo assay 2” value [6] was 3463582 arbitrary units. The “Globalfluo assay 3” value [6] was 3208621 arbitrary units, the Mean globalfluo [6] was 3433543 arbitrary units and the “Survival rate (%)” value [6] was 0%. The “Globalfluo assay 1” value [7] was 2638281 arbitrary units, the “Globalfluo assay 2” value [7] was 3646882 arbitrary units and the “Globalfluo assay 3” value [7] was 3842217 arbitrary units. The Mean globalfluo [7] was 3375793 arbitrary units, the “Survival rate (%)” value [7] was −1% and the “Globalfluo assay 1” value [8] was 3892260 arbitrary units. For the same molecule, the “Globalfluo assay 2” value [8] was 3780606 arbitrary units, the “Globalfluo assay 3” value [8] was 4016223 arbitrary units and the Mean globalfluo [8] was 3896363 arbitrary units. The “Survival rate (%)” value [8] was 2%, the “Globalfluo assay 1” value ([Anidulafungin] log μM −1) was 3282790 arbitrary units and the “Globalfluo assay 2” value ([Anidulafungin] log μM −1) was 3299018 arbitrary units. For the same molecule, the “Globalfluo assay 3” value ([Anidulafungin] log μM −1) was 4299152 arbitrary units, the Mean globalfluo ([Anidulafungin] log μM −1) was 3626987 arbitrary units and the “Survival rate (%)” value ([Anidulafungin] log μM −1) was 0%. For the same molecule, the “Globalfluo assay 1” value ([Anidulafungin] log μM −2) was 5018485 arbitrary units, the “Globalfluo assay 2” value ([Anidulafungin] log μM −2) was 4417533 arbitrary units and the “Globalfluo assay 3” value ([Anidulafungin] log μM −2) was 3450400 arbitrary units. The Mean globalfluo ([Anidulafungin] log μM −2) was 4295473 arbitrary units, the “Survival rate (%)” value ([Anidulafungin] log μM −2) was 3% and the “Globalfluo assay 1” value ([Anidulafungin] log μM −3) was 2824954 arbitrary units. The “Globalfluo assay 2” value ([Anidulafungin] log μM −3) was 3274736 arbitrary units, the “Globalfluo assay 3” value ([Anidulafungin] log μM −3) was 3773899 arbitrary units and the Mean globalfluo ([Anidulafungin] log μM −3) was 3291196 arbitrary units. The “Survival rate (%)” value ([Anidulafungin] log μM −3) was −1%.
